Laboratory results published in publication PMC8429170, “Ligand-binding and -scavenging of the chemerin receptor GPR1” (Cellular and Molecular Life Sciences: CMLS, 2021).
Ends that are not written are not given here. Peptide text beside a SMILES is read from it.

Assays:
GPR1-eYFP (human) = molecular target: T1, GPR1-eYFP (human) (UniProt P46091)
T1 sequence: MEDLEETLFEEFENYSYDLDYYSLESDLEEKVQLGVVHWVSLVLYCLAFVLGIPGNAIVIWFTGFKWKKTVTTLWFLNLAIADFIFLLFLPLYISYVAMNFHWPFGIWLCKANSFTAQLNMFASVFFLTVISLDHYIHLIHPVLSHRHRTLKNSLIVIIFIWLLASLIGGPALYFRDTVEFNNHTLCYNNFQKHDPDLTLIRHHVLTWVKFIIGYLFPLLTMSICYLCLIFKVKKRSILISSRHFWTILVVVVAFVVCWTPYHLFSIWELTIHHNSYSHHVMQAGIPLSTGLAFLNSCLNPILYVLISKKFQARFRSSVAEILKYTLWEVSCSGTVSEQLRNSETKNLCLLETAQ

GPR1 = molecular target: T2, GPR1 (Homo sapiens, UniProt P46091); assay: cell-based; details: for Emax: COS-7
T2 construct: expressed in transfected cells; host or cells: COS-7, transient
Experimental: Arrestin recruitment was characterized by measuring the bioluminescence resonance energy transfer (BRET) ratio between luciferase-tagged arrestin3 and either GPR1-eYFP or CMKLR1-eYFP as described previously. In brief, COS-7 cells in 75 cm^2 cell culture flasks were transiently transfected overnight with 7800 ng GPR1-eYFP or CMKLR1-eYFP in pVitro2 and 200 ng Rluc8-Arr3 in pcDNA3 using MetafectenePro according to the manufacturer’s protocol. […] For kinetic measurements, cells were stimulated with agonist in buffer or buffer alone, and fluorescence was measured for 20 min using a Tecan Infinite M 200 Reader (Tecan, Männerdorf, Switzerland) using the filter sets Green1 (YFP emission, luminescence 520–570 nm) and Blue1 (luciferase luminescence 370–480 nm). For concentration–response curves, cells were stimulated with agonist or blank, and luminescence was measured after 10 min. BRET signal was calculated as the ratio of fluorescence divided by luminescence, netBRET signal was calculated by subtracting the BRET signal of unstimulated wells from the respective samples.

T2 sequence (P32120 whole entry partner, one chain of several): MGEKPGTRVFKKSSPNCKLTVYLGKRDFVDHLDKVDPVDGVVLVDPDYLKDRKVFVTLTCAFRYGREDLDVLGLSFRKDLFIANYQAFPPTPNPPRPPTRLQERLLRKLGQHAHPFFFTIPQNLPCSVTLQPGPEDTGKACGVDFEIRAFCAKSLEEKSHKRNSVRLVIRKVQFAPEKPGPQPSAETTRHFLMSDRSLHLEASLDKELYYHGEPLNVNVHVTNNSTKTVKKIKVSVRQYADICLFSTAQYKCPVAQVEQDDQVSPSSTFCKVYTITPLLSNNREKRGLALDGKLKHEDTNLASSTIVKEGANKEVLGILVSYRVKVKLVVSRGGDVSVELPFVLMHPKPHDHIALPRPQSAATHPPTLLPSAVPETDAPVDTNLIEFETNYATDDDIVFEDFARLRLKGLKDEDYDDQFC

With Chem^149-155 (chemerin-7) (peptide) the EC50 of arrestin3 recruitment to GPR1-eYFP (BRET with Rluc8-Arr3, COS-7 cells) (GPR1-eYFP (human)) was over 1000 nM.

YFPGQFAF [Chem^149−156] showed an EC50 (GPR1) of 3.98 nM and an Emax (GPR1) of 110 ± 16%.

For `C[C@@H]1NC(=O)[C@H](Cc2ccccc2)NC(=O)[C@H](CCC(N)=O)NC(=O)[C@H](NC(=O)[C@@H]2CCCN2C(=O)[C@H](Cc2ccccc2)NC(=O)[C@@H](N)Cc2ccc(O)cc2)CCSSC[C@@H](C(=O)O)NC(=O)[C@H](Cc2ccccc2)NC1=O` [[4-9]-c(chemerin-9)] (HELM PEPTIDE1{Y.F.P.[O=C([C@@H](CCS[*:3])N[*:1])[*:2]].Q.F.A.F.C}$PEPTIDE1,PEPTIDE1,4:R3-9:R3$$$V2.0), the EC50 (GPR1) was 3.3 nM.

For QRAGEDPHSFYFPGQFAFS [Chem^139−157], the EC50 (GPR1) was 3.09 nM and the Emax (GPR1) was 94 ± 7%.

Molecule FPGQFAFS [Chem^150−157] has an EC50 (GPR1) of 22.4 nM and an Emax (GPR1) of 87 ± 8%.

Work on QRAGEDPHSFYFPGQFAF [Chem^139−156] yielded an EC50 (GPR1) of 2.95 nM and an Emax (GPR1) of 99 ± 9%.

Work on QFYSFFPAG [scr2C9] yielded an EC50 of arrestin3 recruitment to GPR1-eYFP (BRET with Rluc8-Arr3, COS-7 cells) (GPR1-eYFP (human)) of over 1000 nM.

Molecule QRAGEDPHSFYFPGQFAFS [Chem^139-157] has an EC50 of arrestin3 recruitment to GPR1-eYFP (BRET with Rluc8-Arr3, COS-7 cells) (GPR1-eYFP (human)) of 3.1 nM.

Work on QRAGEDPHSFYFPGQFAF [Chem^139-156] yielded an EC50 of arrestin3 recruitment to GPR1-eYFP (BRET with Rluc8-Arr3, COS-7 cells) (GPR1-eYFP (human)) of 2.9 nM.

For FPGQFAFS [Chem^150-157], the EC50 of arrestin3 recruitment to GPR1-eYFP (BRET with Rluc8-Arr3, COS-7 cells) (GPR1-eYFP (human)) was 22 nM.

For PGQFAFS [Chem^151-157], the EC50 of arrestin3 recruitment to GPR1-eYFP (BRET with Rluc8-Arr3, COS-7 cells) (GPR1-eYFP (human)) was over 1000 nM.

Work on YFPGQFAF [Chem^149-156] yielded an EC50 of arrestin3 recruitment to GPR1-eYFP (BRET with Rluc8-Arr3, COS-7 cells) (GPR1-eYFP (human)) of 4 nM.
